Legend:
[1] = system: four human cancer cell lines (A-549, MCF-7, Panc-1, HT-29); experiment: Antiproliferative assay, average over four cancer cell lines; type: cell-based; conditions: for GI50: Homo sapiens, average IC50 across A-549, MCF-7, Panc-1, HT-29; for Reduction in antiproliferative potency relative to 10k (GI50): less potent than 10k
Experimental: The given findings were obtained from at least two distinct studies, each comprising three repeats per concentration. Appendix A (SI File) provides experimental details.[38,39] […]
(§1) 4.2.2. Assay for antiproliferative effect
To explore the antiproliferative potential of compounds propidium iodide fluorescence assay was performed using different cell lines such as Panc-1 (pancreas cancer cell line), MCF-7 (breast […]
respectively. To calculate the total nuclear DNA, a fluorescent dye (propidium iodide, PI) is used which can attach to the DNA, thus offering a quick and precise technique. PI cannot pass through the cell membrane and its signal intensity can be considered as directly proportional to quantity of cellular DNA. Cells whose cell membranes are damaged or have changed permeability are counted as dead ones. The assay was performed by seeding the cells of different cell lines at a density of 3000-7500 cells/well (in 200μl medium) in culture plates followed by incubation for 24h at 37 °C […]
The medium was removed; the compounds were added to the plates at 10 μM concentrations (in 0.1% DMSO) in triplicates, followed by incubation for 48h. DMSO (0.1%) was used as control. After incubation, medium was removed followed by the addition of PI (25 μl, 50μg/mL in water/medium) to each well of the plates. At - 80 °C, the plates were allowed to freeze for 24 h, followed by thawing at 25 °C. A fluorometer (Polar-Star BMG Tech) was used to record the readings at excitation and emission wavelengths of 530 and 620 nm for each well. The percentage cytotoxicity of compounds was calculated using […]
Where ATC= Absorbance of treated cells and AC= Absorbance of control. […]
positive control in the assay. […]

HT-29 (colon cancer) = experiment: Antiproliferative assay, HT-29; type: cell-based; conditions: Homo sapiens; HT-29 colon cancer cells; read-out: Antiproliferative activity IC50 ± SEM, HT-29
Description: (§2) The dose–response experiments established the IC50 values for the new compounds. The given findings were obtained from at least two distinct studies, each comprising three repeats per concentration. Appendix A (SI File) provides experimental details.[38,39]
(§3) The MTT assay[43] was utilized to assess the antiproliferative effects of compounds 10a–l on four human cancer cell lines: HT-29 (colon cancer), Panc-1 (pancreatic cancer), A-549 (lung cancer), and MCF-7 (breast cancer). […]
as §1
(§4) To explore the antiproliferative potential of compounds propidium iodide fluorescence assay was performed using different cell lines such as Panc-1 (pancreas cancer cell line), MCF-7 (breast cancer cell line), HT-29 (colon cancer cell line) and A-549 (epithelial cancer cell line), respectively. To calculate the total nuclear DNA, a fluorescent dye (propidium iodide, PI) is used which can attach to the DNA, thus offering a quick and precise technique. PI cannot pass through the cell membrane and its signal intensity can be considered as directly proportional to quantity of cellular DNA. Cells whose cell membranes are damaged or have changed permeability are counted as dead ones. The assay was performed by seeding the cells of different cell lines at a density of 3000-7500 cells/well (in 200μl medium) in culture plates followed by incubation for 24h at 37 °C in humidified 5%CO2/95% air atmospheric conditions. The medium was removed; the compounds were added to the plates at 10 μM concentrations (in 0.1% DMSO) in triplicates, followed by incubation for 48h. DMSO (0.1%) was used as control. After incubation, medium was removed followed by the addition of PI (25 μl, 50μg/mL in water/medium) to each well of the plates. At - 80 °C, the plates were allowed to freeze for 24 h, followed by thawing at 25 °C. A fluorometer (Polar-Star BMG Tech) was used to record the readings at excitation and emission wavelengths of 530 and 620 nm for each well. The percentage cytotoxicity of compounds was calculated using […]
(§5) Where ATC= Absorbance of treated cells and AC= Absorbance of control. Erlotinib was used as positive control in the assay. […]

A-549 (lung cancer) = experiment: Antiproliferative assay, A-549; type: cell-based; conditions: Homo sapiens, A549; A-549 lung cancer cells; read-out: Antiproliferative activity IC50 ± SEM, A-549
Description: as §2, §3, §1, §4, §5

[2] = Cell viability assay (MTT) on normal MCF-10A cells; type: cell-based; conditions: human, MCF-10A mammary gland epithelial cells (normal cell line), MCF-10A normal cells, four-day incubation
Experimental: The impact of novel compounds 10a–l on the viability of a normal human cell line, specifically human mammary gland epithelial cells (MCF-10A), was assessed to ascertain the safety of the newly synthesized compounds. The MTT test was employed to assess the cell viability of the novel compounds after a four-day incubation with MCF-10A cells.[29,37] Refer to Appendix A for more experimental details.
The effect of new compounds 10a–l on the viability of a normal human cell line, namely human mammary gland epithelial cells (MCF-10A), was evaluated to determine the safety of the newly synthesized compounds.
4.2. Biological evaluation
4.2.1 Cell Viability assay (MTT assay)
MTT assay was performed to investigate the effect of the synthesized compounds on mammary epithelial cells (MCF-10A). The cells were propagated in medium consisting of Ham's F-12 medium/ Dulbecco's modified Eagle's medium (DMEM) (1:1) supplemented with 10% foetal calf serum, 2 mM glutamine, insulin (10 μg/mL), hydrocortisone (500 ng/mL) and epidermal growth factor (20 ng/mL). Trypsin ethylenediamine tetra acetic acid (EDTA) was used to passage the cells after every 2-3 days. 96-well flat-bottomed cell culture plates were used to seed the cells at a density of 10^4 cells mL-1. The medium was aspirated from all the wells of culture plates after 24 h followed by the addition of synthesized compounds (in 200 μL medium to yield a final concentration of 0.1% (v/v) dimethyl sulfoxide) into individual wells of the plates. Four wells were designated to a single compound. The plates were allowed to incubate at 37°C for 96 h. Afterwards, the medium was aspirated and 3-[4,5-dimethylthiazol-2-yl]-2,5-diphenyltetrazolium bromide (MTT) (0.4 mg/mL) in medium was added to each well and subsequently incubated for 3 h. The medium was aspirated and 150 μL dimethyl sulfoxide (DMSO) was added to each well. The plates were vortexed followed by the measurement of absorbance at 540 nm on a microplate reader. […]

[3] = system: Panc-1 (pancreatic cancer); experiment: Antiproliferative assay, Panc-1; type: cell-based; conditions: Homo sapiens; Panc-1 pancreatic cancer cells; read-out: Antiproliferative activity IC50 ± SEM, Panc-1
Description: as §2, §3, §1, §4, §5

MCF-7 (breast cancer) = experiment: Antiproliferative assay, MCF-7; type: cell-based, human; conditions: Homo sapiens, MCF7; MCF-7 breast cancer cells; read-out: Antiproliferative activity IC50 ± SEM, MCF-7
Description: as §2, §3, §1, §4, §5

VEGFR-2 = VEGFR-2 (Homo sapiens, UniProt P35968); experiment: VEGFR-2 inhibitory assay
Experimental: The majority of signals detected by antiphosphotyrosine antibody were from EGFR because the enzyme preparation contained low impurities.
Prepare all the solutions using autoclaved, deionized water and analytical grade reagents. Prepare
and store all the reagents at room temperature (unless indicated otherwise). EDTA solution (0.5
M, pH 8.0): add 95 mL ultra-pure water to 14.612 g EDTA, adjust the pH to 8.0 using NaOH
solution, add 5 mL ultra-pure water; 1×Kinase Assay Buffer: add 25 mL HEPES solution (1 M),
water, adjust pH to 7.5 and constant volume to 500 mL using ultrapure water; 4×Stop solution (40
mM): Mix 0.8 mL of the foregoing EDTA solution, 1 mL 10×Detection Buffer and 8.2 mL ultra-
pure water; 1×Detection Buffer: Mix 1 mL 10×Detection Buffer with 9 mL water; 4×VEGFR
μM) was added to 624 μL 1×Kinase Assay Buffer and mixed; 4×ULight™-labeled JAK1
concentration 5 μM) was added to 576 μL 1×Kinase Assay Buffer and mixed; 4×ATP Solution
2×substrate/ATP Mix: 560 μL foregoing 4×ULight™-labeled JAK1 and 560 μL 4×ATP solution
and mixed (prepared before use). The assays used an ULight-labeled peptide substrate and a
Europium-W1024-labeled antiphosphotyrosine antibody. The VEGFR-2 was purchased from
Carna Biosciences, Inc. (New York, USA). The 384-well plates were obtained from PerkinElmer.
Compounds were dissolved in DMSO and diluted to 11 concentrations at a tripling rate from 2.500
5 μL 2×VEGFR-2 kinase solution (0.5 nM)
was added to 384-well plates homogeneous mixing and pre-reaction at room temperature for 30
min. Next, 2.5 μL 4×Ultra ULightTM-JAK-1(Tyr1023) Peptide (200 nM)/ATP (40 μM) was
added to the corresponding wells of a 384-well plate. Negative control: 2.5 μL/well 4×substrate/ATP mixture and 7.5 μL 1×kinase assay buffer in 384-well plate well. Positive control:
μL/well 2×VEGFR-2 kinase solution was added to the 384-well plate, The final concentration of DMSO in the mixing system was 4%. After incubation at room temperature and dark for 60 min, 5 μL 4×stop solution was added to corresponding wells to react for 5 min and then 5 μL 4×detection mix was added to the corresponding wells of a 384-well plate. The mixture was centrifugally mixed and stayed for 60 min at room temperature for color development. The plate
was read using an Envision plate reader. The inhibition rate (%) = (positive well reading-
compound well reading)/(positive well reading-negative well reading)×100. The corresponding IC50 values were calculated using GraphPad Prism 5.0.

EGFR = EGFR (Homo sapiens, UniProt P00533); experiment: EGFR inhibitory assay (EGFR-TK test)
Experimental: Baculoviral expression vectors including pBlueBacHis2B and pFASTBacHTc were used
5ʹ upstream to the EGFR sequence comprised a sequence that encoded (His)6. Sf-9 cells were infected for 72h for protein expression. The pellets of Sf-9 cells were solubilized in a buffer containing sodium vanadate (100 μM), aprotinin (10 μg/mL), triton (1%), HEPES
buffer(50mM), ammonium molybdate (10 μM), benzamidine HCl (16 μg/mL), NaCl (10 mM),leupeptin (10 μg/mL) and pepstatin (10 μg/mL) at 0°C for 20 min at pH 7.4, followed by centrifugation for 20 min. To eliminate the nonspecifically bound material, a Ni-NTA super flow packed column was used to pass through and wash the crude extract supernatant first with 10mM and then with 100 mM imidazole. Histidine-linked proteins were first eluted with 250 and then with 500 mM imidazole subsequent to dialysis against NaCl (50 mM), HEPES (20 mM), glycerol (10%) and 1 μg/mL each of aprotinin, leupeptin and pepstatin for 120 min. The purification was performed either at 4 °C or on ice. To record autophosphorylation level, EGFR kinase assay was carried out on the basis of DELFIA/Time-Resolved Fluorometry. The compounds were first
dissolved in DMSO absolute, subsequent to dilution to appropriate concentration using HEPES
(25 mM) at pH 7.4. Each compound (10 μL) was incubated with recombinant enzyme (10 μL, 5
ng for EGFR, 1:80 dilution in 100 mM HEPES) for 10 min at 25 °C, subsequent to the addition of
5X buffer (10 μL, containing 2 mM MnCl2, 100 μM Na3VO4, 20 mM HEPES and 1 mM DTT)
and ATP-MgCl2 (20 μL, containing 0.1 mM ATP and 50 mM MgCl2) and incubation for 1h. The
negative and positive controls were included in each plate by the incubation of enzyme either with
or without ATP-MgCl2. The liquid was removed after incubation and the plates were washed
thrice using a wash buffer. The Europium-tagged antiphosphotyrosine antibody (75 μL, 400 ng)
was added to each well followed by incubation of 1h and then washing of the plates using buffer.
The enhancement solution was added to each well and the signal was recorded at excitation and
The autophosphorylation percentage inhibition by compounds was calculated using the following equation:
calculated. The majority of signals detected by antiphosphotyrosine antibody were from EGFR because the enzyme preparation contained low impurities.

caspase-9 = experiment: Caspase-9 activation assay in MCF-7 cells; type: cell-based, human
Experimental: (§6) Compounds10k and 10l were tested as caspases-3, 8, 9, Bax and p53 activators and as down-regulators of the anti-apoptotic protein Bcl2 against the MCF-7 breast cancer cell line.[41] Appendix A gives more details.
(§7) To elucidate the apoptotic processes of compounds 10k and 10l, whether via the intrinsic or extrinsic pathway, their impacts on caspase-8 and caspase-9 were evaluated. […] This signifies the activation of both intrinsic and extrinsic pathways (Table 5).
(§8) 4.2.6. Caspase-8/9 activation assay
(§9) Cells were obtained from American Type Culture Collection, cells were grown in RPMI 1640 containing 10% fetal bovine serum at 37°C, stimulated with the compounds to be tested for caspase 8/9, and lysed with Cell Extraction Buffer. This lysate was diluted in Standard Diluent Buffer over the range of the assay and measured for human active caspase-8/9 content. (Cells are Plated in a density of 1.2 – 1.8 × 10,000 cells/well in a volume of 100µl complete growth medium + 100 ul of the tested compound per well in a 96-well plate for 24 hours before the enzyme assay). The absorbance of each microwell was read on a spectro-photometer at 450 nm. […]

caspase-3 = experiment: Caspase-3 activation assay in MCF-7 cells; type: cell-based, human; conditions: vs untreated control
caspase-8 = experiment: Caspase-8 activation assay in MCF-7 cells; type: cell-based, human
Experimental: as §6, §7, §8, §9

Sequence of EGFR (P00533 669-1210): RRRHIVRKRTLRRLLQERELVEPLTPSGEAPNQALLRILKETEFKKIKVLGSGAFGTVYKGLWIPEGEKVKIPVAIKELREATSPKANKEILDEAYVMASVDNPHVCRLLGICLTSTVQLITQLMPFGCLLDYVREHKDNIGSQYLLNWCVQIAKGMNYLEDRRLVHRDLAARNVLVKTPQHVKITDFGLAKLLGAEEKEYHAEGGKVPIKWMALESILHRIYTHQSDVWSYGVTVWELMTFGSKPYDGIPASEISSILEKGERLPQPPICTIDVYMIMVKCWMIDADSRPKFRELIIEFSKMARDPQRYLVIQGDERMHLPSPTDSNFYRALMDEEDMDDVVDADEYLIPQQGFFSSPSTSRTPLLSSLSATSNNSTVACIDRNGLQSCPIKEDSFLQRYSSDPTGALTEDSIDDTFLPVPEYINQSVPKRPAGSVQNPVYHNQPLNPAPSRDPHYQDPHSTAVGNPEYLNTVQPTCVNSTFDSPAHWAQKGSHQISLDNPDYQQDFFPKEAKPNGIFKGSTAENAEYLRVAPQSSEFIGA
Sequence of VEGFR-2 (P35968 20-1356): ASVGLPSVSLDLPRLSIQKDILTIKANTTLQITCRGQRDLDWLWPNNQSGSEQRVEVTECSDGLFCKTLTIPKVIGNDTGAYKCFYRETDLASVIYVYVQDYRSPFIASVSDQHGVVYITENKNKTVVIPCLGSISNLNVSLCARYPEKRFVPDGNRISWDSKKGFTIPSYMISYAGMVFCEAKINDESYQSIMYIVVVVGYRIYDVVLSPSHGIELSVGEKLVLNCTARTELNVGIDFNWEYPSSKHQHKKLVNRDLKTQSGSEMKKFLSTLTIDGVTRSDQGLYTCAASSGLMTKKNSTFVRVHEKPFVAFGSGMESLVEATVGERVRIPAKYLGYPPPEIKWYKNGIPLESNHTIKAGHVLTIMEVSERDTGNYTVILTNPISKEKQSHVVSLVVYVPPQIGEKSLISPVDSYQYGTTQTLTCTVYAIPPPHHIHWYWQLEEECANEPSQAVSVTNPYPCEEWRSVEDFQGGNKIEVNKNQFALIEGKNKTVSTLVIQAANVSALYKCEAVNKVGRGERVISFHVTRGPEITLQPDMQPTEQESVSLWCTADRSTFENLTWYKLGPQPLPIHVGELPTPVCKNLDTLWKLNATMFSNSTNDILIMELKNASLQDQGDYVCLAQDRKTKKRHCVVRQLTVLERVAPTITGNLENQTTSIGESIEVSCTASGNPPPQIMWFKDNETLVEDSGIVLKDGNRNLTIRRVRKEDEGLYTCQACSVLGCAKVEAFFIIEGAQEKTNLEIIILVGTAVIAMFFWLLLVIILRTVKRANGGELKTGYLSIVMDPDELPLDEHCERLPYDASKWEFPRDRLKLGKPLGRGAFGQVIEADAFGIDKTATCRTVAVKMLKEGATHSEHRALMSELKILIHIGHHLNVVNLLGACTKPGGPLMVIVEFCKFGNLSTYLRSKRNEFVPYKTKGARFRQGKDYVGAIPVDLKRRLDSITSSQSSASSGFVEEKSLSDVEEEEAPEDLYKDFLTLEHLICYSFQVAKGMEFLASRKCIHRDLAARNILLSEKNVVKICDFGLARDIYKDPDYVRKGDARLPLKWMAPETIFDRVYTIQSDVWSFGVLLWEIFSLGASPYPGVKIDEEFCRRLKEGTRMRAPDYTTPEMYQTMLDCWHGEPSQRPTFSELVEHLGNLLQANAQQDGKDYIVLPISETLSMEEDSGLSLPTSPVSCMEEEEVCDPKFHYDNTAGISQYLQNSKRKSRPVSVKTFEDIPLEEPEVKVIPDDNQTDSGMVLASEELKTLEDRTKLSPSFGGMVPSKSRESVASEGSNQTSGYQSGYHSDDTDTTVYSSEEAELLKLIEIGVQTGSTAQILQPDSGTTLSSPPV

SMILES | GI50 [1] [nM] | IC50 (HT-29 (colon cancer)) [nM] | IC50 (A-549 (lung cancer)) [nM] | IC50 [3] [nM] | IC50 (MCF-7 (breast cancer)) [nM] | Reduction in antiproliferative potency relative to 10k (GI50) [1] [fold] | IC50 (VEGFR-2) [nM] | IC50 (EGFR) [nM] | viability at 96 h, 50 µM [2] [%] | Caspase-9 Conc (caspase-9) [ng/mL] | Caspase-9 Fold change (caspase-9; vs untreated control) [fold] | Caspase-3 Fold change (caspase-3) [fold] | Caspase-8 Conc (caspase-8) [ng/mL] | Caspase-8 Fold change (caspase-8; vs untreated control) [fold]
N#Cc1c(-c2ccncc2)nc(SCc2nc(-c3ccc(Cl)cc3)no2)[nH]c1=O [Compound 10e, 2-(((3-(4-Chlorophenyl)-1,2,4-oxadiazol-5-yl)methyl)thio)-6-oxo-4-(pyridin-4-yl)-1,6-dihydropyrimidine-5-carbonitrile] | 28 | 30 ± 2 | 30 ± 2 | 28 ± 1 | 25 ± 1 | 1.3 | 32 ± 2 | 65 ± 4 | 90 | – | – | – | – | –
COc1ccc(-c2noc(CSc3nc(-c4ccncc4)c(C#N)c(=O)[nH]3)n2)cc1 [Compound 10f, 2-(((3-(4-Methoxyphenyl)-1,2,4-oxadiazol-5-yl)methyl)thio)-6-oxo-4-(pyridin-4-yl)-1,6-dihydropyrimidine-5-carbonitrile] | 51 | 54 ± 4 | 52 ± 4 | 50 ± 4 | 49 ± 3 | – | – | – | 91 | – | – | – | – | –
C#Cc1cccc(Nc2ncnc3cc(OCCOC)c(OCCOC)cc23)c1 [Erlotinib, reference compound] | – | 30 ± 3 | 30 ± 3 | 30 ± 3 | 40 ± 3 | – | – | – | – | – | – | – | – | –
CN[C@@H]1C[C@H]2O[C@@](C)([C@@H]1OC)n1c3ccccc3c3c4c(c5c6ccccc6n2c5c31)C(=O)NC4 [Staurosporine, reference compound] | – | – | – | – | – | – | – | – | – | 20 ± 1 | 20 | 7.00 | 1.90 ± 0.10 | 19.00

The next lines start with results.

GI50 [1] [nM] | IC50 (HT-29 (colon cancer)) [nM] | IC50 (A-549 (lung cancer)) [nM] | IC50 [3] [nM] | IC50 (MCF-7 (breast cancer)) [nM] | Reduction in antiproliferative potency relative to 10k (GI50) [1] [fold] | IC50 (VEGFR-2) [nM] | IC50 (EGFR) [nM] | SMILES | viability at 96 h, 50 µM [2] [%] | Caspase-9 Conc (caspase-9) [ng/mL] | Caspase-9 Fold change (caspase-9; vs untreated control) [fold] | Caspase-3 Fold change (caspase-3) [fold] | Caspase-8 Conc (caspase-8) [ng/mL] | Caspase-8 Fold change (caspase-8; vs untreated control) [fold]
43 | 45 ± 3 | 44 ± 3 | 42 ± 3 | 40 ± 3 | – | – | – | N#Cc1c(-c2ccccc2)nc(SCc2nc(-c3ccccc3)no2)[nH]c1=O [Compound 10a, 2-(((3-Phenyl-1,2,4-oxadiazol-5-yl)methyl)thio)-6-oxo-4-phenyl-1,6-dihydropyrimidine-5-carbonitrile] | 91 | – | – | – | – | –
63 | 66 ± 5 | 65 ± 5 | 61 ± 5 | 61 ± 5 | 2.9 | – | – | N#Cc1c(-c2ccccc2)nc(SCc2nc(-c3ccc(Cl)cc3)no2)[nH]c1=O [Compound 10b, 2-(((3-(4-Chlorophenyl)-1,2,4-oxadiazol-5-yl)methyl)thio)-6-oxo-4-phenyl-1,6-dihydropyrimidine-5-carbonitrile] | 90 | – | – | – | – | –
47 | 51 ± 3 | 49 ± 3 | 44 ± 3 | 44 ± 3 | – | – | – | COc1ccc(-c2noc(CSc3nc(-c4ccccc4)c(C#N)c(=O)[nH]3)n2)cc1 [Compound 10c, 2-(((3-(4-Methoxyphenyl)-1,2,4-oxadiazol-5-yl)methyl)thio)-6-oxo-4-phenyl-1,6-dihydropyrimidine-5-carbonitrile] | 92 | – | – | – | – | –
54 | 57 ± 4 | 56 ± 4 | 53 ± 4 | 51 ± 4 | – | – | – | N#Cc1c(-c2ccncc2)nc(SCc2nc(-c3ccccc3)no2)[nH]c1=O [Compound 10d, 2-(((3-Phenyl-1,2,4-oxadiazol-5-yl)methyl)thio)-6-oxo-4-(pyridin-4-yl)-1,6-dihydropyrimidine-5-carbonitrile] | 89 | – | – | – | – | –
38 | 40 ± 2 | 39 ± 2 | 37 ± 2 | 35 ± 2 | – | – | – | N#Cc1c(-c2ccc(Cl)cc2)nc(SCc2nc(-c3ccccc3)no2)[nH]c1=O [Compound 10g, 2-(((3-Phenyl-1,2,4-oxadiazol-5-yl)methyl)thio)-4-(4-chlorophenyl)-6-oxo-1,6-dihydropyrimidine-5-carbonitrile] | 90 | – | – | – | – | –
68 | 70 ± 5 | 69 ± 5 | 68 ± 5 | 65 ± 5 | 3 | – | – | COc1ccc(-c2nc(SCc3nc(-c4ccccc4)no3)[nH]c(=O)c2C#N)cc1 [Compound 10j, 2-(((3-Phenyl-1,2,4-oxadiazol-5-yl)methyl)thio)-4-(4-methoxyphenyl)-6-oxo-1,6-dihydropyrimidine-5-carbonitrile] | 89 | – | – | – | – | –

From publication PMC12530851, “Design, synthesis, and apoptotic antiproliferative activity of novel dihydropyrimidine-5-carbonitrile/1,2,4-oxadiazole hybrids as dual EGFR/VEGFR-2 inhibitors endowed with antioxidant activity” (RSC Advances, 2025)
